Assay results published in patent US20080226648A1, “Methods for Treating Stress and Affecting Biological Immune Systems” (priority 2004, published 2008).
Where a name gives a salt, the structure may show the parent alone.

Columns and labels:
Assay type in all cases: in vivo
lymphatic cells = assay: Lymphatic cells transformation test (PHA, 3H-TdR, SI) on blood of goats pre- and post-operation
Method: (§1) An experiment was conducted on sixteen castrated adult goats, which were randomly divided into control group (n=8) and treatment group (TG, n=8); housed separately; and fed with the same nutrient level. The TG was treated orally with a cysteamine compound (the cysteamine compound is preferably cysteamine hydrochloride, where a dose of 45 mg/kg of body weight was administered, with 30% of the 45 mg/kg dosage comprising the cysteamine compound) provided by Shanghai Walcom Bio-Chem Ltd). Both groups were subjected to rumen operation and duodenum operation.
(§2) This experiment was conducted in four phases: (a) Roughage phase pre-operation: from day 18 to day 14 before the operation, both groups of goats were fed with roughage (dried peanut stalk) and water; (b) Concentrate phase pre-operation: day 13 to day 1 before the operation (in total 13 days), both groups were fed with roughage and concentrate (50 g/head), and the TG was also treated with a cysteamine compound (using dosages described above) at the same time; (c) Rumen operation phase: after completion of the concentrate phase pre-operation, the rumen operation was performed to affix a fistula on the rumen, which was followed by 18 days of recovery; (d) Duodenum operation phase: 18 days after the rumen operation, a second operation was performed to affix a fistula on the duodenum, following which the goats were allowed to have 17 days of recovery to complete this experiment. The feeding diet during the operation was same as that of concentrate phase per-operation.
While conducting the experiment, blood samples were periodically collected. In general, blood was collected via the neck vein before morning feeding. Part of the blood from each sample was stored in tubes containing heparin for anti-coagulation. […]
IL-2 and cortisol testing kits were used. […] Thymidine with radioactivity 1 mci/m, and Scintillation solution: PPO (2,5, Diphenyloxazole,) 5 g POPOP(1,4bis [5-phenyloxazolyl] benzene) 0.3 g Dimethyl benzene: 800 mL; 100% ethanol: 200 ml were added to each tube.

spleen B-cells = assay: Antibody forming cell count (spleen B-cells after sheep RBC immunization) in mice; conditions: 30 days, immunized with sheep RBC
Text: (§3) Male C57BL/6N mice were used in Example 2, 28 mice in total. The 28 mice were used for pretest for 7 days before the treatment began. Two groups of 14 mice were then created. […] Each group contained six replicates and each replicate contained 8 mice. The treatment period was for 30 days.
(§4) Lymphocyte transformation rate in plasma, white blood cell (WBC) count, natural killer cell activity, Plasma IL-2 (Kit provided by Jinginei Biotech) and IL-6 (Kit provided by Bender MedSystems) measurements, and antibody forming, cell count were performed according to methods known to the skilled artisan (see “Medical Immunology Experiment,” Publisher: People Hygiene, Published in 1999 in China, Editor: Xi Chuan Ping). Five days before the end of the treatment, 12 mice from each group (each replicate for 2 mice) were immunized with 0.5 ml of 2% sheep RBC (equivalent to −2×10^8 cells per ml) for testing spleen B-cells. The relative weights of spleen and thymus to body weight (mg/100 g BW) were also measured. All statistical analyses were performed on ANOVA.
(§5) The WBC count, lymphocyte transformation rate (specifically in the spleen), antibody forming cell, and natural killer cell killing rate (based on the killing rate of K562 cells by natural killer cell) were measured and analyzed, as illustrated in Tables 4and5.

IL-2 [1] = assay: Serum IL-2 concentration (RIA) in goats pre- and post-operation
Method: as §1, §2
(§6) While conducting the experiment, blood samples were periodically collected. In general, blood was collected via the neck vein before morning feeding. Part of the blood from each sample was stored in tubes containing heparin for anti-coagulation. The remaining part of each blood sample was centrifuged and then stored the serum at −20° C. Blood samples were collected at the following times: (a) Day 4 of the Roughage phase pre-operation; (b) Day 13 of the Concentrate phase (one day before the operation, B1); (c) 10 days after the 1st operation (rumen operation); and (d) 6 days and 17 days after the 2nd operation (duodenum operation).
(§7) Serum IL-2, cortisol concentration and lymphatic transformation testing were also performed during the experiment. […] To perform lymphatic cells transformation test, the blood samples from both groups were treated as follows: 3 tubes/sample, with blood sample 100 ul/tube for PHA− (PHA−: without PHA) and 3 tubes/sample for PHA+(PHA+: each tube added with 50 ul PHA diluted solution); cells in both PHA− and PHA+ were cultured for total 72 hours. After 48 hours of cell culture, 1 uL ^3H-TdR was added to each tube with and mixed with cells and incubated further for 24 hours. At the completion of the culturing process, the cells were lysed. The lysate from both PHA− and PHA+ tubes were transferred to scintillation bottles, dried at 80° C., then added with 5 ml scintillation solution. The solutions were stored overnight and tested for cpm. SI index implies the rate of lymphatic cells transformation induced by lectin, SI=cpm(PHA+)/cpm(PHA−).
(§8) IL-2 and cortisol testing kits were used. To prepare RPMI-1640 cell culture medium, RPMI-1640 powder was added with distillated water and filtered, and 20% Fetal Bovine Serum, Penicillin (100 U/ml) as well as Streptomycin (100 U/ml) was added. 2 ml culture medium solution was then added to each tube. In addition, diluted PHA, [Methy-^3H] Thymidine with radioactivity 1 mci/m, and Scintillation solution: PPO (2,5, Diphenyloxazole,) 5 g POPOP(1,4bis [5-phenyloxazolyl] benzene) 0.3 g Dimethyl benzene: 800 mL; 100% ethanol: 200 ml were added to each tube.
All data from the experiment (see Table 1) were expressed in mean±SE and analyzed by Excel software for t-test analysis, where P<0.05 implies significant difference, and 0.05<P<0.15 implies changes. The symbol “§” in Table 1 denotes TG treated with Cysteamine. […]

lymphocyte = assay: Lymphocyte transformation rate (SI value, PHA) in mice; conditions: 30 days
Text: Male C57BL/6N mice were used in Example 2, 28 mice in total. The 28 mice were used for pretest for 7 days before the treatment began. Two groups of 14 mice were then created. […] Each group contained six replicates and each replicate contained 8 mice. The treatment period was for 30 days. Lymphocyte transformation rate in plasma, white blood cell (WBC) count, natural killer cell activity, Plasma IL-2 (Kit provided by Jinginei Biotech) and IL-6 (Kit provided by Bender MedSystems) measurements, and antibody forming, cell count were performed according to methods known to the skilled artisan (see “Medical Immunology Experiment,” Publisher: People Hygiene, Published in 1999 in China, Editor: Xi Chuan Ping). Five days before the end of the treatment, 12 mice from each group (each replicate for 2 mice) were immunized with 0.5 ml of 2% sheep RBC (equivalent to −2×10^8 cells per ml) for testing spleen B-cells. The relative weights of spleen and thymus to body weight (mg/100 g BW) were also measured. All statistical analyses were performed on ANOVA. The WBC count, lymphocyte transformation rate (specifically in the spleen), antibody forming cell, and natural killer cell killing rate (based on the killing rate of K562 cells by natural killer cell) were measured and analyzed, as illustrated in Tables 4and5. […]

Male C57BL/6N mice [2] = assay: Relative weights of spleen and thymus to body weight in mice; conditions: 30 days
Text: Male C57BL/6N mice were used in Example 2, 28 mice in total. The 28 mice were used for pretest for 7 days before the treatment began. Two groups of 14 mice were then created. […] Each group contained […]. The treatment period was for 30 days. Lymphocyte transformation rate in plasma, white blood cell (WBC) count, natural killer cell activity, Plasma IL-2 (Kit provided by Jinginei Biotech) and IL-6 (Kit provided by Bender MedSystems) measurements, and antibody forming, cell count were performed according to methods known to the skilled artisan (see “Medical Immunology Experiment,” Publisher: People Hygiene, Published in 1999 in China, Editor: Xi Chuan Ping). Five days before the end of the treatment, 12 mice from each group (each replicate for 2 mice) were immunized with 0.5 ml of 2% sheep RBC (equivalent to −2×10^8 cells per ml) for testing spleen B-cells. The relative weights of spleen and thymus to body weight (mg/100 g BW) were also measured. All statistical analyses were performed on ANOVA. After conducting all tests and analyses, the relative weight of certain immune organs, namely the thymus and spleen, were measured, as illustrated in Table 4.

Male C57BL/6N mice [3] = assay: White blood cell (WBC) count in mice; conditions: 30 days
Text: as §3, §4, §5

cortisol = assay: Serum cortisol concentration (RIA) in goats pre- and post-operation
Method: as §1, §2, §6, §7, §8
Cortisol concentrations of the two groups before the operation were substantially similar (20.51±4.1 for the control group versus 20.32±4.0 ug 1^−1 for the TG). Changes in cortisol concentration levels in the TG before and after the 1st operation were slight. […]

IL-6 = assay: Plasma IL-6 measurement in mice; conditions: 30 days
Text: (§9) Male C57BL/6N mice were used in Example 2, 28 mice in total. The 28 mice were used for pretest for 7 days before the treatment began. Two groups of 14 mice were then created. […] Each group contained six replicates and each replicate contained 8 mice. The treatment period was for 30 days. Lymphocyte transformation rate in plasma, white blood cell (WBC) count, natural killer cell activity, Plasma IL-2 (Kit provided by Jinginei Biotech) and IL-6 (Kit provided by Bender MedSystems) measurements, and antibody forming, cell count were performed according to methods known to the skilled artisan (see “Medical Immunology Experiment,” Publisher: People Hygiene, Published in 1999 in China, Editor: Xi Chuan Ping). Five days before the end of the treatment, 12 mice from each group (each replicate for 2 mice) were immunized with 0.5 ml of 2% sheep RBC (equivalent to −2×10^8 cells per ml) for testing spleen B-cells. The relative weights of spleen and thymus to body weight (mg/100 g BW) were also measured. All statistical analyses were performed on ANOVA.

K562 cells = assay: Natural killer cell killing rate in mice; conditions: 30 days, killing of K562 cells
Text: as §3, §4, §5

IL-2 [4] = assay: Plasma IL-2 measurement in mice; conditions: 30 days
Text: as §9

In the case of `NCCS` [Cysteamine hydrochloride, cysteamine hydrochloride], the “degree of decrease in lymphatic cells transformation rate caused by surgical operations” value (lymphatic cells; TG versus control group, P<0.05) is reported as “significantly smaller than that of the control group”, the “rate of TG lymphatic cell transformation increased compared to the rate of the control group” value (lymphatic cells; six days after the 2nd/duodenum operation, P<0.05) is reported as 3.5 fold and the “lymphatic cells transformation rate (SI)” value (lymphatic cells; treatment group, oral 45 mg/kg BW, Concentrate phase pre-operation, P=0.14 vs control) is reported as 132.4±20.3. The “Antibody Forming Cell (OD, Optical Density)” value (spleen B-cells; Treatment 1: 40 mg/kg BW oral) was 1.48 ± 0.19 ^A OD, the “Antibody Forming Cell (OD, Optical Density)” value (spleen B-cells; Treatment 2: 80 mg/kg BW oral) was 0.91 ± 0.51 ^C OD and the “difference in IL-2 concentration levels between the two groups” value (IL-2 [1]; after 17 days from the 2nd operation) was “had disappeared”. For the same compound, the “TG IL-2 concentration levels higher than the control group” value (IL-2 [1]; after the first operation (Day 10 after 1st, Day 6 after 2nd operation), P<0.05) was 90-100%, the “IL-2 concentration in TG, pre- versus post-operation” value (IL-2 [1]; treatment group) was “no significant difference between pre- and post-operation” and the IL-2 serum concentration (IL-2 [1]; treatment group n=8, oral 45 mg/kg BW (30% cysteamine compound), pre-operation Concentrate phase, listed as Cysteamine, hydrochloride, 45 mg/kg) was 0.97 ± 0.15 µg/L. For the same compound, the IL-2 serum concentration (IL-2 [1]; treatment group n=8, oral 45 mg/kg BW (30% cysteamine compound), pre-operation Concentrate phase, listed as cysteamine compound, hydrochloride, 45 mg/kg) was 0.97 ± 0.15 µg/L, the IL-2 serum concentration (IL-2 [1]; treatment group, oral 45 mg/kg BW, after 1st (rumen) operation, Day 10, listed as Cysteamine, hydrochloride, 45 mg/kg) was 1.32 ± 0.10 ^A ug/l and the IL-2 serum concentration (IL-2 [1]; treatment group, oral 45 mg/kg BW, after 1st (rumen) operation, Day 10, listed as cysteamine compound, hydrochloride, 45 mg/kg) was 1.32 ± 0.10 µg/L. For the same compound, the IL-2 serum concentration (IL-2 [1]; treatment group, oral 45 mg/kg BW, after 2nd (duodenum) operation, Day 6, listed as Cysteamine, hydrochloride, 45 mg/kg) was 0.95 ± 0.06 ^B ug/l, the IL-2 serum concentration (IL-2 [1]; treatment group, oral 45 mg/kg BW, after 2nd (duodenum) operation, Day 6, listed as cysteamine compound, hydrochloride, 45 mg/kg) was 0.95 ± 0.06 µg/L and the IL-2 serum concentration (IL-2 [1]; treatment group, oral 45 mg/kg BW, after 2nd (duodenum) operation, Day 17) was 1.02 ± 0.08 µg/L. For the same compound, the “Lymphocyte Transformation (SI Value, Stimulation Index)” value (lymphocyte; Treatment 1: 40 mg/kg BW oral) was 1.15 ± 0.02 ^B, the “Lymphocyte Transformation (SI Value, Stimulation Index)” value (lymphocyte; Treatment 2: 80 mg/kg BW oral) was 1.24 ± 0.05 ^A and the Spleen weight (Male C57BL/6N mice [2]; Treatment 1: 40 mg/kg BW oral) was 298 ± 5.03 mg/100 g of body weight. The Thymus weight (Male C57BL/6N mice [2]; Treatment 1: 40 mg/kg BW oral) was 549 ± 1.89 ^B mg/100 g of body weight, the Spleen weight (Male C57BL/6N mice [2]; Treatment 2: 80 mg/kg BW oral) was 296 ± 7.50 mg/100 g of body weight and the Thymus weight (Male C57BL/6N mice [2]; Treatment 2: 80 mg/kg BW oral) was 567 ± 7.18 ^A mg/100 g of body weight. The “WBC Count” value (Male C57BL/6N mice [3]; Treatment 1: 40 mg/kg BW oral) was 7.12 ± 0.65 10^9/L, the “WBC Count” value (Male C57BL/6N mice [3]; Treatment 2: 80 mg/kg BW oral) was 7.53 ± 0.55 10^9/L and the “cortisol concentration before the operation” value (cortisol; TG, before the operation) was 20.32±4.0 ug 1^−1. For the same compound, the “changes in cortisol concentration levels in the TG before and after the 1st operation” value (cortisol; treatment group) was “slight”, the cortisol serum concentration (cortisol; treatment group n=8, oral 45 mg/kg BW, pre-operation Concentrate phase) was 20.3 ± 4.0 µg/L and the cortisol serum concentration (cortisol; treatment group, after 1st operation, Day 10) was 20.9 ± 3.7 µg/L. The cortisol serum concentration (cortisol; treatment group, after 2nd operation, Day 6) was 21.2 ± 5.2 µg/L, the cortisol serum concentration (cortisol; treatment group, after 2nd operation, Day 17) was 20.7 ± 5.8 µg/L and the “Plasma IL-6” value (IL-6; Treatment 1: 40 mg/kg BW oral) was 226.20 ± 37.93 pg/mL. The “Plasma IL-6” value (IL-6; Treatment 2: 80 mg/kg BW oral) was 247.00 ± 51.76 pg/mL, the “NK Killing Rate” value (K562 cells; Treatment 1: 40 mg/kg BW oral) was 92.19 ± 2.20% and the “NK Killing Rate” value (K562 cells; Treatment 2: 80 mg/kg BW oral) was 93.60 ± 2.21%. For the same compound, the “Plasma IL-2” value (IL-2 [4]; Treatment 1: 40 mg/kg BW oral) was 5.88 ± 0.53 pg/mL and the “Plasma IL-2” value (IL-2 [4]; Treatment 2: 80 mg/kg BW oral) was 5.76 ± 0.50 pg/mL.
